From patent publication US20230022157A1 (Achillion Pharmaceuticals, Inc., priority 2018, published 2023)
Read-outs that look alike come from different tables or passages of the source.

Molecular target: T1, Human Factor D (Homo sapiens, UniProt P00746)
T1 construct: purified from human serum; purchased Complement Technology, Inc; host or cells: human serum (natural protein, not recombinant)
Test: Human Factor D Assay
Format: biochemical
Details: Human Factor D 80 nM, substrate Z-L-Lys-SBzl, read-out: IC50 (Stars)
Summary of the method: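 Serum-purified human factor D (80 nM final) preincubated 5 min at room temperature with test compound in 50 mM Tris, 1M NaCl, pH 7.5. Z-L-Lys-SBzl substrate and DTNB then added, each at 100 μM final. IC50 from nonlinear regression of reaction rate against compound concentration.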

T1 sequence (P00746 26-253): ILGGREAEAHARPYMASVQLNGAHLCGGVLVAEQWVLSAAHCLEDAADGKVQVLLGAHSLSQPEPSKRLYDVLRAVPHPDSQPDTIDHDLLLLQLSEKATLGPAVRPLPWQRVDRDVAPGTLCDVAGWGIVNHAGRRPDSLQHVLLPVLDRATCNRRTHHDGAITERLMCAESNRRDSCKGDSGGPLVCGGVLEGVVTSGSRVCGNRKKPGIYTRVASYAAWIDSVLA

IC50 (Table 2)	IC50 (assay of Example 3)	SMILES
< 1000 nM		CC(=O)c1nn(CC(=O)N2[C@H](C(=O)Nc3nc(Br)ccc3C)C[C@@]3(C)C[C@@H]23)c2c(C)cc(-c3cnc(C(N)=O)nc3)cc12 [Compound 53, (1R,3S,5R)-2-(2-(3-acetyl-5-(2-carbamoylpyrimidin-5-yl)-7-methyl-1H-indazol-1-yl)acetyl)-N-(6-bromo-3-methylpyridin-2-yl)-5-methyl-2-azabicyclo[3.1.0]hexane-3-carboxamide]
< 1000 nM		COC[C@@]12C[C@@H](C(=O)Nc3nc(C(F)(F)F)ccc3C)N(C(=O)Cn3cc(C(C)=O)c4cc(-c5cnc(C)nc5)cc(C)c43)[C@@H]1C2 [Compound 229, (1R,3S,5S)-2-(2-(3-acetyl-7-methyl-5-(2-methylpyrimidin-5-yl)-1H-indol-1-yl)acetyl)-5-(methoxymethyl)-N-(3-methyl-6-(trifluoromethyl)pyridin-2-yl)-2-azabicyclo[3.1.0]hexane-3-carboxamide]
< 1000 nM		CC(=O)c1cn(CC(=O)N2[C@H]3CC[C@H](C3)[C@H]2C(=O)Nc2nc(C(F)(F)F)ccc2C)c2c(C)cc(-c3cnc(C)nc3)cc12 [Compound 177, (1S,3S,4R)-2-(2-(3-acetyl-7-methyl-5-(2-methylpyrimidin-5-yl)-1H-indol-1-yl)acetyl)-N-(3-methyl-6-(trifluoromethyl)pyridin-2-yl)-2-azabicyclo[2.2.1]heptane-3-carboxamide]
< 1000 nM		CC(=O)c1nn(CC(=O)N2[C@H](C(=O)Nc3nc(C(F)(F)F)ccc3C)C[C@@]3(C)C[C@@H]23)c2ccc(-c3cnc4cc(C)nn4c3)cc12 [Compound 212, (1R,3S,5R)-2-(2-(3-acetyl-5-(2-methylpyrazolo[1,5-a]pyrimidin-6-yl)-1H-indazol-1-yl)acetyl)-5-methyl-N-(3-methyl-6-(trifluoromethyl)pyridin-2-yl)-2-azabicyclo[3.1.0]hexane-3-carboxamide]
	< 1000 nM	CC(=O)c1nn(CC(=O)N2[C@H](C(=O)Nc3cccc(C(F)(F)F)c3F)C[C@@]3(C)C[C@@H]23)c2ccc(-c3cnc(C)nc3)cc12 [Compound 24, (1R,3S,5R)-2-(2-(3-Acetyl-5-(2-methylpyrimidin-5-yl)-1H-indazol-1-yl)acetyl)-N-(2-fluoro-3-(trifluoromethyl)phenyl)-5-methyl-2-azabicyclo[3.1.0]hexane-3-carboxamide]
< 1000 nM		CC(=O)c1nn(CC(=O)N2[C@H](C(=O)Nc3nc(Br)ccc3C)C[C@@]3(C)C[C@@H]23)c2ccc(-c3cnc(C(C)O)nc3)cc12 (stereo partly drawn) [Compound 126, (1R,3S,5R)-2-(2-(3-acetyl-5-(2-(1-hydroxyethyl)pyrimidin-5-yl)-1H-indazol-1-yl)acetyl)-N-(6-bromo-3-methylpyridin-2-yl)-5-methyl-2-azabicyclo[3.1.0]hexane-3-carboxamide]
< 1000 nM		CC(=O)c1cn(CC(=O)N2[C@H](C(=O)Nc3nc(C(F)(F)F)ccc3C)C[C@@]3(CF)C[C@@H]23)c2c(C)cc(-c3cnc(C)nc3)cc12 [Compound 234, (1R,3S,5S)-2-(2-(3-acetyl-7-methyl-5-(2-methylpyrimidin-5-yl)-1H-indol-1-yl)acetyl)-5-(fluoromethyl)-N-(3-methyl-6-(trifluoromethyl)pyridin-2-yl)-2-azabicyclo[3.1.0]hexane-3-carboxamide]
	1000 to 10000 nM	CC(=O)c1nn(CC(=O)N2[C@H](C(=O)NCCc3ccncc3)C[C@@]3(C)C[C@@H]23)c2c(C)cc(-c3cnc(C)nc3)cc12 [Compound 8, (1R,3S,5R)-2-(2-(3-Acetyl-7-methyl-5-(2-methylpyrimidin-5-yl)-1H-indazol-1-yl)acetyl)-5-methyl-N-(2-(pyridin-4-yl)ethyl)-2-azabicyclo[3.1.0]hexane-3-carboxamide]
< 1000 nM		CC(=O)c1nn(CC(=O)N2[C@H](C(=O)N[C@H](C)C(F)(F)F)C[C@@]3(C)C[C@@H]23)c2c(C)cc(-c3cnc(C)nc3)cc12 [Compound 152, (1R,3S,5R)-2-{2-[3-acetyl-7-methyl-5-(2-methylpyrimidin-5-yl)indazol-1-yl]acetyl}-5-methyl-N-[(2R)-1,1,1-trifluoropropan-2-yl]-2-azabicyclo[3.1.0]hexane-3-carboxamide]
	< 1000 nM	CC(=O)c1nn(CC(=O)N2[C@H](C(=O)Nc3nc(Br)ccc3C)C[C@@]3(C)C[C@@H]23)c2ccc(-c3cnc(CO)nc3)cc12 [Compound 30, (1R,3S,5R)-2-(2-(3-acetyl-5-(2-(hydroxymethyl)pyrimidin-5-yl)-1H-indazol-1-yl)acetyl)-N-(6-bromo-3-methylpyridin-2-yl)-5-methyl-2-azabicyclo[3.1.0]hexane-3-carboxamide]
< 1000 nM		CC(=O)c1cn(CC(=O)N2[C@H](C(=O)Nc3nc(C(F)(F)F)ccc3C)C[C@@]3(C)C[C@@H]23)c2ccc(-c3cnc4cc(C)nn4c3)cc12 [Compound 203, (1R,3S,5R)-2-(2-(3-acetyl-5-(2-methylpyrazolo[1,5-a]pyrimidin-6-yl)-1H-indol-1-yl)acetyl)-5-methyl-N-(3-methyl-6-(trifluoromethyl)pyridin-2-yl)-2-azabicyclo[3.1.0]hexane-3-carboxamide]
< 1000 nM		CC(=O)c1cn(CC(=O)N2[C@H](C(=O)Nc3cncc(Br)n3)C[C@@]3(C)C[C@@H]23)c2c(C)cc(-c3cnc(C(C)O)nc3)cc12 (stereo partly drawn) [Compound 159, (1R,3S,5R)-2-(2-(3-acetyl-5-(2-(1-hydroxyethyl)pyrimidin-5-yl)-7-methyl-1H-indol-1-yl)acetyl)-N-(6-bromopyrazin-2-yl)-5-methyl-2-azabicyclo[3.1.0]hexane-3-carboxamide]
< 1000 nM		CC(=O)c1nn(CC(=O)N2[C@H](C(=O)N[C@H](c3ccccc3)C(F)(F)F)C[C@@]3(C)C[C@@H]23)c2c(C)cc(-c3cnc(C)nc3)cc12 [Compound 86, (1R,3S,5R)-2-{2-[3-acetyl-7-methyl-5-(2-methylpyrimidin-5-yl)indazol-1-yl]acetyl}-5-methyl-N-[(1R)-2,2,2-trifluoro-1-phenylethyl]-2-azabicyclo[3.1.0]hexane-3-carboxamide]
< 1000 nM		CC(=O)c1nn(CC(=O)N2[C@H](C(=O)Nc3nc(Br)c(F)cc3C)C[C@@]3(C)C[C@@H]23)c2c(C)cc(-c3cnc(C(C)(C)O)nc3)cc12 [Compound 68, (1R,3S,5R)-2-(2-(3-acetyl-5-(2-(2-hydroxypropan-2-yl)pyrimidin-5-yl)-7-methyl-1H-indazol-1-yl)acetyl)-N-(6-bromo-5-fluoro-3-methylpyridin-2-yl)-5-methyl-2-azabicyclo[3.1.0]hexane-3-carboxamide]
	< 1000 nM	CONC(=O)c1nn(CC(=O)N2[C@H](C(=O)Nc3nc(Br)ccc3C)C[C@@]3(C)C[C@@H]23)c2ccc(-c3cnc(C)nc3)cc12 [Compound 9, 1-(2-((1R,3S,5R)-3-((6-Bromo-3-methylpyridin-2-yl)carbamoyl)-5-methyl-2-azabicyclo[3.1.0]hexan-2-yl)-2-oxoethyl)-N-methoxy-5-(2-methylpyrimidin-5-yl)-1H-indazole-3-carboxamide]
< 1000 nM		Cc1cc(F)c(Br)nc1NC(=O)[C@@H]1C[C@@]2(C)C[C@H]2N1C(=O)Cn1nc(C(N)=O)c2cc(-c3cnc(CO)nc3)nc(C)c21 [Compound 167, (1R,3S,5R)—N-(6-bromo-5-fluoro-3-methylpyridin-2-yl)-2-(2-{3-carbamoyl-5-[2-(hydroxymethyl)pyrimidin-5-yl]-7-methylpyrazolo[3,4-c]pyridin-1-yl}acetyl)-5-methyl-2-azabicyclo[3.1.0]hexane-3-carboxamide]
< 1000 nM		CC(=O)c1nn(CC(=O)N2[C@H](C(=O)Nc3ccc(F)c(Br)n3)C[C@@]3(C)C[C@@H]23)c2c(C)cc(-c3cnc(C(C)O)nc3)cc12 (stereo partly drawn) [Compound 125, (1R,3S,5R)-2-(2-(3-acetyl-5-(2-(1-hydroxyethyl)pyrimidin-5-yl)-7-methyl-11H-indazol-1-yl)acetyl)-N-(6-bromo-5-fluoropyridin-2-yl)-5-methyl-2-azabicyclo[3.1.0]hexane-3-carboxamide]
< 1000 nM		Cc1ncc(-c2cc3c(C(N)=O)nn(CC(=O)N4[C@H](C(=O)Nc5cc(F)cc(Br)n5)C[C@@]5(C)C[C@@H]45)c3c(C)n2)cn1 [Compound 140, 1-(2-((1R,3S,5R)-3-((6-bromo-4-fluoropyridin-2-yl)carbamoyl)-5-methyl-2-azabicyclo[3.1.0]hexan-2-yl)-2-oxoethyl)-7-methyl-5-(2-methylpyrimidin-5-yl)-1H-pyrazolo[3,4-c]pyridine-3-carboxamide]
< 1000 nM		COc1cc(Br)nc(NC(=O)[C@@H]2C[C@@]3(C)C[C@H]3N2C(=O)Cn2nc(C(C)=O)c3cc(-c4cnc(CO)nc4)cc(C)c32)c1 [Compound 65, (1R,3S,5R)-2-(2-(3-acetyl-5-(2-(hydroxymethyl)pyrimidin-5-yl)-7-methyl-11H-indazol-1-yl)acetyl)-N-(6-bromo-4-methoxypyridin-2-yl)-5-methyl-2-azabicyclo[3.1.0]hexane-3-carboxamide]
< 1000 nM		CC(=O)c1nn(CC(=O)N2C[C@H]3C[C@H]3[C@H]2C(=O)Nc2nc(Br)ccc2C)c2ccc(-c3cnc(CO)nc3)cc12 [Compound 63, (1R,2S,5S)-3-(2-(3-acetyl-5-(2-(hydroxymethyl)pyrimidin-5-yl)-1H-indazol-1-yl)acetyl)-N-(6-bromo-3-methylpyridin-2-yl)-3-azabicyclo[3.1.0]hexane-2-carboxamide]
< 1000 nM		CC(=O)c1cn(CC(=O)N2[C@H]3CC[C@H](C3)[C@H]2C(=O)Nc2nc(Br)ccc2C)c2c(C)cc(-c3cnc(C)nc3)cc12 [Compound 178, (1S,3S,4R)-2-(2-(3-acetyl-7-methyl-5-(2-methylpyrimidin-5-yl)-1H-indol-1-yl)acetyl)-N-(6-bromo-3-methylpyridin-2-yl)-2-azabicyclo[2.2.1]heptane-3-carboxamide]
